The compounds below were run on AMP-activated protein kinase (AMPK) (assay: ADP Quest assay for AMPK activators). Settings: fold of AMPK activation to phosphorylate SAMS peptide without and with an activator at the concentration of 30 µM.
Assay type: biochemical
Set-up: key: fold AMPK activation with vs without activator at 30 µM
Protocol: ADP Quest™ Assay for AMPK Activators
This method evaluates AMP-activated protein kinase (AMPK) activity through detecting the accumulation of ADP product using an ADP Quest kit and determining the E30 values of the small molecular AMPK activators. ADP Quest kit (DiscoveRx, Fremont, Calif.) is stored at −20° C. before use. Before an experiment, thaw the kit (include assay buffer, ADP standard solution, reagent A and reagent B) and equilibrate to room temperature. Dispense the ADP Quest reagents into single-use aliquots and store at −20° C. The compound concentrations typically range from 0 µM to 100 µM by 2-fold dilution. AMP concentrations range from […] to 1 mM as the reference control. In an assay, thaw and equilibrate the assay buffer, reagent A and reagent B to room temperature for 30 minutes prior to use. Mix ATP, SAMS peptide substrate and compound, and place them into the 384-well assay plate. Add reagent A and B based on the assay kit protocol. Incubate the assay plate at room temperature for 30 minutes after addition the mixture followed by the addition of AMPK protein (Invitrogen, CA) to initiate the AMPK phosphorylation reaction. At the same time, reactions with AMPK activator AMP in the absence of enzyme is included as blank control. The reaction fluorescence signal is monitored and recorded on Envision in kinetic mode with the excitation wavelength of 530 nm and emission wavelength of 590 nm. The E30 value, defined as the fold of AMPK activation to phosphorylate SAMS peptide without and with an activator at the concentration of 30 µM, is calculated and analyzed using Prism 5.0.

Row | SMILES | E30
1 | CNC(=O)C(C)(C)Nc1cccc(C2Nc3ccc(C(=O)NS(C)(=O)=O)cc3CC2(C)C)c1 (stereo not shown) [Example 39, 2-[3-(6-Methanesulfonylaminocarbonyl-3,3-dimethyl-1,2,3,4-tetrahydro-quinolin-2-yl)-phenylamino]-2,N-dimethyl-propionamide] | 1.36
2 | CC(C)NC(=O)C(C)(C)Nc1cccc(C2Nc3ccc(C(=O)NS(C)(=O)=O)cc3CC2(C)C)c1 (stereo not shown) [Example 43, N-isopropyl-2-[3-(6-methanesulfonylaminocarbonyl-3,3-dimethyl-1,2,3,4-tetrahydro-quinolin-2-yl)-phenylamino]-2-methyl-propionamide] | 1.29
3 | CC(C)(Nc1cccc(C2Nc3ccc(C(F)(F)F)cc3CC2(C)C)c1)C(=O)O (stereo not shown) [Example 45, 2-[3-(3,3-Dimethyl-6-trifluoromethyl-1,2,3,4-tetrahydro-quinolin-2-yl)-phenylamino]-2-methyl-propionic acid] | 2.41
4 | CC(C)(C)c1ccc(-c2cncc(C3Nc4ccc(C(=O)O)cc4CC3(C)C)c2)cc1 (stereo not shown) [Example 46, 2-[5-(4-tert-Butyl-phenyl)-pyridin-3-yl]-3,3-dimethyl-1,2,3,4-tetrahydro-quinoline-6-carboxylic acid] | 1.46
5 | CNC(=O)C(C)(C)Nc1cccc(C2Nc3ccc(C(=O)NS(=O)(=O)C4CC4)cc3CC2(C)C)c1 (stereo not shown) [Example 47, 2-[3-(6-Cyclopropanesulfonylaminocarbonyl-3,3-dimethyl-1,2,3,4-tetrahydro-quinolin-2-yl)-phenylamino]-2,N-dimethyl-propionamide] | 1.23
6 | CC(C)(C)c1ccc(-c2cc(F)cc(C3Nc4ccc(C(=O)NS(C)(=O)=O)cc4CC3(C)C)c2)cc1 (stereo not shown) [Example 49, N-[2-(4′-tert-Butyl-5-fluoro-biphenyl-3-yl)-3,3-dimethyl-1,2,3,4-tetrahydro-quinoline-6-carbonyl]-methanesulfonamide] | 2.25
7 | CN(C)c1cc(F)cc(C2Nc3ccc(C(=O)NS(C)(=O)=O)cc3CC2(C)C)c1 (stereo not shown) [Example 50, N-[2-(3-Dimethylamino-5-fluoro-phenyl)-3,3-dimethyl-1,2,3,4-tetrahydro-quinoline-6-carbonyl]-methanesulfonamide] | 1.61
8 | CC1(C)Cc2cc(C(=O)O)ccc2NC1c1cc(F)cc(-c2ccc(C#N)cc2)c1 (stereo not shown) [Example 51, 2-(4′-Cyano-5-fluoro-biphenyl-3-yl)-3,3-dimethyl-1,2,3,4-tetrahydro-quinoline-6-carboxylic acid] | 1.42
9 | CC1(C)Cc2cc(C(=O)NS(=O)(=O)C3CC3)ccc2NC1c1cc(F)cc(F)c1 (stereo not shown) [Example 52, Cyclopropanesulfonic acid [2-(3,5-difluoro-phenyl)-3,3-dimethyl-1,2,3,4-tetrahydro-quinoline-6-carbonyl]-amide] | 1.35
10 | CC1(C)Cc2cc(C(=O)O)ccc2NC1c1cc(N2CCOCC2)ccc1F (stereo not shown) [Example 53, 2-(2-Fluoro-5-morpholin-4-yl-phenyl)-3,3-dimethyl-1,2,3,4-tetrahydro-quinoline-6-carboxylic acid] | 1.33
11 | CC1(C)Cc2cc(C(=O)NS(=O)(=O)C3CC3)ccc2NC1c1cc(N2CCOCC2)ccc1F (stereo not shown) [Example 54, Cyclopropanesulfonic acid [2-(2-fluoro-5-morpholin-4-yl-phenyl)-3,3-dimethyl-1,2,3,4-tetrahydro-quinoline-6-carbonyl]-amide] | 1.28
12 | CC1(C)Cc2cc(C(=O)NS(=O)(=O)C3CC3)ccc2NC1c1cc(Cl)cc(N2CCOCC2)c1 (stereo not shown) [Example 56, Cyclopropanesulfonic acid [2-(3-chloro-5-morpholin-4-yl-phenyl)-3,3-dimethyl-1,2,3,4-tetrahydro-quinoline-6-carbonyl]-amide] | 1.26
13 | CC1(C)Cc2cc(C(=O)NS(C)(=O)=O)ccc2NC1c1cc(Cl)cc(N2CCOCC2)c1 (stereo not shown) [Example 57, N-[2-(3-Chloro-5-morpholin-4-yl-phenyl)-3,3-dimethyl-1,2,3,4-tetrahydro-quinoline-6-carbonyl]-methanesulfonamide] | 1.25
14 | CC1(C)Cc2cc(C(=O)NS(=O)(=O)C3CC3)ccc2NC1c1ccc(F)c(N2CCOCC2)c1 (stereo not shown) [Example 58, Cyclopropanesulfonic acid [2-(4-fluoro-3-morpholin-4-yl-phenyl)-3,3-dimethyl-1,2,3,4-tetrahydro-quinoline-6-carbonyl]-amide] | 1.22
15 | CC1(C)Cc2cc(C(=O)NS(C)(=O)=O)ccc2NC1c1ccc(F)c(N2CCOCC2)c1 (stereo not shown) [Example 59, N-[2-(4-Fluoro-3-morpholin-4-yl-phenyl)-3,3-dimethyl-1,2,3,4-tetrahydro-quinoline-6-carbonyl]-methanesulfonamide] | 1.2
16 | Cc1ccc(F)cc1C1Nc2ccc(C(=O)NS(=O)(=O)C3CC3)cc2CC1(C)C (stereo not shown) [Example 60, Cyclopropanesulfonic acid [2-(5-fluoro-2-methyl-phenyl)-3,3-dimethyl-1,2,3,4-tetrahydro-quinoline-6-carbonyl]-amide] | 1.2

More lines, now with the values ahead:

Row | E30 | SMILES
17 | 1.34 | CC(C)(CO)Nc1cccc(C2Nc3ccc(C(=O)O)cc3CC2(C)C)c1 (stereo not shown) [Example 29, 2-[3-(2-Hydroxy-1,1-dimethyl-ethylamino)-phenyl]-3,3-dimethyl-1,2,3,4-tetrahydro-quinoline-6-carboxylic acid]
18 | 1.45 | CN(C)C(=O)N(C)c1cccc(C2Nc3ccc(C(=O)O)cc3CC2(C)C)c1 (stereo not shown) [Example 30, 3,3-Dimethyl-2-[3-(trimethyl-ureido)-phenyl]-1,2,3,4-tetrahydro-quinoline-6-carboxylic acid]
19 | 1.33 | CN(C(N)=O)c1cccc(C2Nc3ccc(C(=O)O)cc3CC2(C)C)c1 (stereo not shown) [Example 31, 3,3-Dimethyl-2-[3-(1-methyl-ureido)-phenyl]-1,2,3,4-tetrahydro-quinoline-6-carboxylic acid]
20 | 1.38 | CC(C)N(C(N)=O)c1cccc(C2Nc3ccc(C(=O)O)cc3CC2(C)C)c1 (stereo not shown) [Example 32, 2-[3-(1-Isopropyl-ureido)-phenyl]-3,3-dimethyl-1,2,3,4-tetrahydro-quinoline-6-carboxylic acid]
21 | 1.15 | CC1(C)Cc2cc(C(=O)O)ccc2NC1c1cccc(N2C(=O)OCC2(C)C)c1 (stereo not shown) [Example 34, 2-[3-(4,4-Dimethyl-2-oxo-oxazolidine-3-yl)-phenyl]-3,3-dimethyl-1,2,3,4-tetrahydro-quinoline-6-carboxylic acid]
22 | 1.41 | CC1(C)Cc2cc(C(=O)O)ccc2NC1c1cccc(NC(=O)N2CCCC2)c1 (stereo not shown) [Example 35, 3,3-Dimethyl-2-{3-[(pyrrolidine-1-carbonyl)-amino]-phenyl}-1,2,3,4-tetrahydro-quinoline-6-carboxylic acid]
23 | 1.37 | CCN(CC)C(=O)Nc1cccc(C2Nc3ccc(C(=O)O)cc3CC2(C)C)c1 (stereo not shown) [Example 36, 2-[3-(3,3-Diethyl-ureido)-phenyl}-3,3-dimethyl-1,2,3,4-tetrahydro-quinoline-6-carboxylic acid]
24 | 2.19 | CC(C)(Nc1cccc(C2Nc3ccc(Cl)cc3CC2(C)C)c1)C(=O)O (stereo not shown) [Example 37, 2-[3-(6-Chloro-3,3-dimethyl-1,2,3,4-tetrahydro-quinolin-2-yl)-phenylamino]-2-methyl-propionic acid]
25 | 2.12 | CC(C)(Nc1cccc(C2Nc3ccc(C#N)cc3CC2(C)C)c1)C(=O)O (stereo not shown) [Example 38, 2-[3-(6-Cyano-3,3-dimethyl-1,2,3,4-tetrahydro-quinolin-2-yl)-phenylamino]-2-methyl-propionic acid]
26 | 1.35 | CN(C)C(=O)C(C)(C)Nc1cccc(C2Nc3ccc(C(=O)O)cc3CC2(C)C)c1 (stereo not shown) [Example 40, 2-[3-(1-Dimethylcarbamoyl-1-methyl-ethylamino)-phenyl]-3,3-dimethyl-1,2,3,4-tetrahydro-quinoline-6-carboxylic acid]
27 | 1.35 | CC(C)(Nc1cccc(C2Nc3ccc(C(=O)O)cc3CC2(C)C)c1)C(=O)N1CCOCC1 (stereo not shown) [Example 41, 2-[3-(1,1-Dimethyl-2-morpholin-4-yl-2-oxo-ethylamino)-phenyl]-3,3-dimethyl-1,2,3,4-tetrahydro-quinoline-6-carboxylic acid]
28 | 1.31 | CN1CCN(C(=O)C(C)(C)Nc2cccc(C3Nc4ccc(C(=O)O)cc4CC3(C)C)c2)CC1 (stereo not shown) [Example 42, 2-{3-[1,1-Dimethyl-2-(4-methyl-piperazin-1-yl)-2-oxo-ethylamino]-phenyl}-3,3-dimethyl-1,2,3,4-tetrahydro-quinoline-6-carboxylic acid]
29 | 2.67 | CC1(C)Cc2cc(C(=O)O)ccc2NC1c1cccc(NC2(C(=O)O)CC2)c1 (stereo not shown) [Example 44, 2-[3-(1-Carboxy-cyclopropylamino)-phenyl]-3,3-dimethyl-1,2,3,4-tetrahydro-quinoline-6-carboxylic acid]
30 | 2.62 | CC(C)(Nc1cccc(C2Nc3ccc(S(C)(=O)=O)cc3CC2(C)C)c1)C(=O)O (stereo not shown) [Example 48, 2-[3-(6-Methanesulfonyl-3,3-dimethyl-1,2,3,4-tetrahydro-quinolin-2-yl)-phenylamino]-2-methyl-propionic acid]
31 | 1.28 | CC1(C)Cc2cc(C(=O)O)ccc2NC1c1cc(Cl)cc(N2CCOCC2)c1 (stereo not shown) [Example 55, 2-(3-Chloro-5-morpholin-4-yl-phenyl)-3,3-dimethyl-1,2,3,4-tetrahydro-quinoline-6-carboxylic acid]

Reference: patent US8586747B2, “3,3-dimethyl tetrahydroquinoline derivatives” (Hoffmann-La Roche Inc., priority 2010, dated 2013)
